Tests used:
Assay type in all cases: in vivo
[1] = tested on: tobacco budworm (Heliothis virescens); test: Insecticidal test for tobacco budworm (leaf-dip, cotton cotyledon discs); settings: Heliothis virescens, 120 h, dipped cotton cotyledon discs, 2nd instar larvae, 5 days, rating of % Control, read-out: TBW, activity at 400 ppm against tobacco budworm
Description: (§1) Insecticidal test for tobacco budworm (Heliothis virescens), beet armyworm (Spodoptera exigua), and cabbage looper (Trichoplusia ni).
(§2) To prepare test solution, the test compound was formulated at 400 ppm in 7.5 mL of 2 acetone: 1 tap water. 250 µL of the test solution was pipetted upon the surface of 8 mL of lepidopteran diet (modified Shorey) contained in each of five one-ounce plastic cups (one cup = 1 replication). […] After airdrying, the treated leaf discs were placed individually into one-ounce plastic cups. Each dried, treated cotton cotyledon disc was infested with a 2nd instar tobacco budworm larva, and each cabbage leaf disc was infested with a 2nd instar cabbage looper larva. Cups containing the treated substrates and larvae were capped and then held in a growth chamber at 25 °C, 50-55% RH, and 14 hr light: 10 hr dark for 5 days.

[2] = tested on: beet armyworm (Spodoptera exigua); test: Insecticidal test for beet armyworm (treated lepidopteran diet); settings: Spodoptera exigua, 120 h, 2nd instar larvae, 5 days, rating of % Control, read-out: BAW, activity at 400 ppm against beet armyworm
Description: as §1, §2

[3] = tested on: cabbage looper (Trichoplusia ni); test: Insecticidal test for cabbage looper (leaf-dip, cabbage leaf discs); settings: Trichoplusia ni, foliar, 120 h, dipped cabbage leaf discs, 2nd instar larvae, 5 days, rating of % Control, read-out: CL, activity at 400 ppm against cabbage looper
Description: as §1, §2

[4] = tested on: cotton aphid (Aphis gossypii); test: Insecticidal test for cotton aphid (spray on infested squash cotyledons); settings: 50 ppm spray, all life stages, 3 days, rating of % Control
Description: Insecticidal test for cotton aphid (Aphis gossypii)
To prepare spray solutions, 1 mg of each test compound was dissolved into 1 mL of a 90:10 acetone:ethanol solvent. This 1 mL of chemical solution was added to 19 mL of water containing 0.05% Tween 20 surfactant to produce a 50 ppm spray solution.
Squash cotyledons were infested with cotton aphid (all life stages)16-20 hours prior to application of spray solution. The solution was sprayed on both sides of each infested squash cotyledon (0.5 mL x 2 each side) with a sweeping action until runoff. The plants were allowed to air dry and held for 3 days in a controlled room at 26 °C and 40% RH after which time the test was graded. Grading was by actual count using a dissecting microscope and comparison of test counts to the untreated check.

[5] = tested on: two-spotted spider mite (Tetranychus urticae); test: Insecticidal test for two-spotted spider mite, ovicide method; settings: Tetranychus urticae, foliar, 144 h; ovicide method, cotton leaf discs, 6 days; rating of % Control; read-out: SM, activity against two-spotted spider mite
Description: Insecticidal test for two-spotted spider mite (Tetranychus urticae)
Ten adult female two-spotted spider mites were placed on eight 2.2 cm leaf discs of cotton leaf, allowed to oviposit over 24 hours, and thereafter removed. […] Discs were placed on an agar substrate and held at 24 °C and 90% RH for 6 days.

[6] = tested on: Sweetpotato Whitefly (Bemisia tabacia); test: Insecticidal test for sweetpotato whitefly (spray on cotton plants); settings: Bemisia, 312 h, 200 ppm spray, large nymphs counted after 13 days, rating of % Control, read-out: WF, activity at 200 ppm against whitefly
Description: Insecticidal test for Sweetpotato Whitefly (Bemisia tabacia)
Four mg of each test compound were dissolved by adding 4 mL of a 90:10 acetone:ethanol solvent mixture to the vial containing the sample compound. This solution was added to 16 mL of water containing 0.05% Tween 20 surfactant to produce 20 mL of a 200 ppm spray solution.
Five-week-old cotton plants reared in a greenhouse were stripped of all foliage except for the two uppermost true leaves that were greater than 5 cm in diameter. These plants were then placed into a laboratory colony of whiteflies for two days for oviposition by the colony females. All whiteflies were then removed from the test plants with pressurized air. The spray solution was then applied to the test plants with a hand-held syringe fitted with hollow cone nozzle. One mL spray solution was applied to each leaf top and bottom for a total of 4 mL per plant. Four replications of each test compound utilized a total of 16 mL spray solution. Plants were air dried and then placed in a holding chamber (28 °C and 60% RH) for 13 days. Compound efficacy was evaluated by counting, under an illuminated magnifying glass, the number of large nymphs (3rd-4th instar) per leaf
Percent control based on reduction of large nymphs of a test compound compared to solution-only (no test compound) sprayed plants is reported in Table 1-8.

Row | SMILES | pest or weed control at 400 ppm [1] | pest or weed control at 400 ppm [2] | pest or weed control at 400 ppm [3] | CA, activity at 50 ppm against cotton aphid [4] | pest or weed control [5] | pest or weed control at 200 ppm [6]
1 | C[C@H]1OC(c2c(F)cccc2F)=N[C@H]1c1ccc(-c2ccc(OC(F)(F)F)cc2)cc1 (mixture of isomers) [Compound 6, (4S,5R)- and (4R,5S)-2-(2,6-difluorophenyl)-4-(4'-trifluoromethoxy-1,1'-biphenyl-4-yl)-5-methyl-4,5-dihydro-1,3-oxazole] | 90 to 100% | 90 to 100% | 90 to 100% | A (90-100) | 90 to 100% | 80 to 89%
2 | CC(C)c1ccc(-c2ccc([C@@H]3N=C(c4c(F)cccc4F)O[C@@H]3C)cc2)cc1 (mixture of isomers) [Compound 7, (4S,5R)- and (4R,5S)-2-(2,6-difluorophenyl)-4-(4'-isopropyl-1,1'-biphenyl-4-yl)-5-methyl-4,5-dihydro-1,3-oxazole] | 90 to 100% | 90 to 100% | 90 to 100% |  | 60 to 69% | 90 to 100%
3 | C[C@@H]1OC(c2c(F)cccc2F)=N[C@@H]1c1ccc(Br)cc1 (mixture of isomers) [Compound 2, (4R,5S)- and (4S,5R)-4-(4-bromophenyl)-2-(2,6-difluorophenyl)-5-methyl-4,5-dihydro-1,3-oxazole] |  | < 50% | < 50% | A (90-100) | 90 to 100% | 90 to 100%
4 | Cc1cc(-c2ccc(OC(F)(F)F)cc2)ccc1[C@H]1N=C(c2c(F)cccc2F)O[C@H]1C (mixture of isomers) [Compound 40, (4R,5S)- and (4S,5R)-2-(2,6-difluorophenyl)-5-methyl-4[3-methyl-4'-(trifluoromethoxy)-1,1'-biphenyl-4-yl]-4,5-dihydro-1,3-oxazole] | 90 to 100% | 90 to 100% | 90 to 100% |  | 80 to 89% | < 50%
5 | C[C@@H]1OC(c2c(F)cccc2Cl)=N[C@@H]1c1ccc(Br)cc1 (mixture of isomers) [Compound 3, (4R,5S)- and (4S,5R)-4-(4-bromophenyl)-2-(2-chloro-6-fluorophenyl)-5-methyl-4,5-dihydro-1,3-oxazole] |  |  | 90 to 100% | B (80-89) | 90 to 100% | 90 to 100%
